Experimental data: patent publication US20110039762A1, “TARGETED ANTIMICROBIAL MOIETIES” (C3 JIAN, INC., priority 2009, published 2011)
Entries after “also recorded” stand apart in the source; their conditions may differ. Ends that are not written are not given here.

Tested on: B. subtilis
Assay: MIC (broth microdilution)
Assay type: cell-based, Bacillus subtilis
Conditions: not given
Procedure: (§1) Typically, the in vitro antimicrobial activity of antimicrobial agents is tested using standard NCCLS bacterial inhibition assays, or MIC tests (see, National Committee on Clinical Laboratory Standards “Performance Standards for Antimicrobial Susceptibility Testing,” NCCLS Document M100-S5 Vol. 14, No. 16, December 1994; “Methods for dilution antimicrobial susceptibility test for bacteria that grow aerobically-Third Edition,” Approved Standard M7-A3, National Committee for Clinical Standards, Villanova, Pa.).
(§2) Briefly, ˜1×10^5 cfu/mL bacteria were diluted in TH (S. mutans), or Mueller-Hinton (MH) broth (all other organisms) and distributed to 96-well plates. Serially-diluted (2-fold) peptides were then added and the plates incubated at 37° C. for 18-24 h. […] All experiments were conducted 10 times.

Substance | MIC
RESKLIAMADMIRRRI-NH2 [PF-545] | B. subtilis, 25 μM

Tested on: microorganisms (e.g., bacteria, yeasts, fungi)
Assay: Targeting peptide binding to target microorganisms (Table 3)
Conditions: microorganism(s) the targeting peptide binds; binding in aqueous buffers depending on peptide solubility, preferably 1x PBS

Substance | Target(s)
NYAVVSHT [PF-209] | C. albicans; also recorded: C. jeikeium; also recorded: C. jejuni

Same assay, conditions: microorganism(s) the targeting peptide binds; peptide binding conducted in aqueous buffers varied by peptide solubility, preferably 1x PBS

Substance | Target(s)
SLQSQLGPCLHDQRH [PF-448] | S. epidermidis; also recorded: M. luteus; also recorded: P. mirabilis; also recorded: E. coli; also recorded: S. pneumoniae; also recorded: E. faecalis; also recorded: C. jeikeium; also recorded: C. jejuni
LSEMERRRLRKRA-NH2 [PF-529] | S. epidermidis and E. coli and C. albicans and MRSA and S. pneumoniae and E. faecalis and C. jeikeium
RESKLIAMADMIRRRI-NH2 [PF-545] | S. epidermidis; also recorded: E. coli; also recorded: P. aeruginosa; also recorded: S. pneumoniae; also recorded: E. faecalis; also recorded: C. jeikeium

Same assay, conditions: peptide binding in aqueous buffers varied by peptide solubility; preferably 1x PBS

Substance | Target(s) (microorganisms bound by the targeting peptide)
PF-C084: peptide having multiple activities (FFSVIFLFGLNYLICNSPLFNILR; Peptide with targeting and/or antimicrobial activity) | A. naeslundii; also recorded: F. nucleatum; also recorded: P. gingivalis; also recorded: S. mutans
PF-C180: peptide having multiple activities (TVEELDKAFTWGAAAALAIGVIAINVGLAAGYCYNNNDVF; Peptide with targeting and/or antimicrobial activity) | F. nucleatum; also recorded: P. gingivalis; also recorded: S. mutans; also recorded: T. denticola
PF-C052: peptide having multiple activities (SRFRNGV; Peptide with targeting and/or antimicrobial activity) | A. naeslundii; also recorded: F. nucleatum; also recorded: S. mutans
PF-C088: peptide having multiple activities (DIANNILNSVSERLIIA; Peptide with targeting and/or antimicrobial activity) | A. naeslundii; also recorded: F. nucleatum; also recorded: P. gingivalis; also recorded: S. mutans; also recorded: T. denticola
PF-C136: peptide having multiple activities (LILSYQASVYPLFAYLCQQKDY; Peptide with targeting and/or antimicrobial activity) | A. naeslundii; also recorded: F. nucleatum; also recorded: P. gingivalis; also recorded: S. mutans; also recorded: T. denticola
NTNDLLQAFELMGLGMAGVFIVLGILYIVAELLIKIFPVNN [PF-C194] | A. naeslundii; also recorded: F. nucleatum; also recorded: P. gingivalis; also recorded: S. mutans; also recorded: T. denticola

Tested on: P. aeruginosa
Assay: Kill or inhibit growth/proliferation; morphology, biofilm and growth disruption (Tables 5, 6); also: test concentration or dose not given here
Assay type: cell-based, Pseudomonas aeruginosa
Parameters: key: A: Peptide aggregates; B: Less hyphal formation; Clumps; Diffuse clumps and small polyps; F: Diffuse growth; H: Thin; I: Growth inhibition; Microcolony formation; Rippled; Small polyps; Thick; W: Halo formation on top, microlonies on bottom
Conditions: not given

Substance | Organism, effect
NYAVVSHT [PF-209] | P. aeruginosa (H)

Tested on: C. albicans
Assay: as above
Assay type: cell-based, Candida albicans
Parameters: key: A: Peptide aggregates; B: Less hyphal formation; Clumps; Diffuse clumps and small polyps; F: Diffuse growth; H: Thin; I: Growth inhibition; Microcolony formation; Rippled; Small polyps; Thick; W: Halo formation on top, microlonies on bottom
Conditions: not given

Substance | Organism, effect
RESKLIAMADMIRRRI-NH2 [PF-545] | C. albicans (B)

Tested on: MRSA
Assay: MIC (broth microdilution)
Assay type: cell-based, Methicillin-resistant Staphylococcus aureus
Conditions: not given
Procedure: as §1, §2

Substance | MIC
NYAVVSHT [PF-209] | MRSA , 50 μM
RESKLIAMADMIRRRI-NH2 [PF-545] | MRSA , 50 μM
KFQGEFTNIGQSYIVSASHMSTSLNTGK [PF-583] | MRSA , 50 μM

Tested on: P. gingivalis
Assay: Kill or inhibit growth/proliferation; morphology, biofilm and growth disruption (Tables 5, 6); also: test concentration or dose not given here
Assay type: cell-based, Porphyromonas gingivalis
Parameters: key: A: Peptide aggregates; B: Less hyphal formation; Clumps; Diffuse clumps and small polyps; F: Diffuse growth; H: Thin; I: Growth inhibition; Microcolony formation; Rippled; Small polyps; Thick; W: Halo formation on top, microlonies on bottom
Conditions: not given

Substance | Organism, effect (morphology, biofilm and growth disruption)
PF-C089 (MPKRHYYKLEAKALQFGLPFAYSPIQLLK; Peptide with targeting and/or antimicrobial activity) | P. gingivalis (R)
PF-C084: peptide having multiple activities (FFSVIFLFGLNYLICNSPLFNILR; Peptide with targeting and/or antimicrobial activity) | P. gingivalis (R)
PF-C180: peptide having multiple activities (TVEELDKAFTWGAAAALAIGVIAINVGLAAGYCYNNNDVF; Peptide with targeting and/or antimicrobial activity) | P. gingivalis (R)
PF-C052: peptide having multiple activities (SRFRNGV; Peptide with targeting and/or antimicrobial activity) | P. gingivalis (H)
PF-C088: peptide having multiple activities (DIANNILNSVSERLIIA; Peptide with targeting and/or antimicrobial activity) | P. gingivalis (R)
PF-C136: peptide having multiple activities (LILSYQASVYPLFAYLCQQKDY; Peptide with targeting and/or antimicrobial activity) | P. gingivalis (R)
PF-C293 (IIIILPKIYLVCKTV; Peptide with targeting and/or antimicrobial activity) | P. gingivalis (R)
NTNDLLQAFELMGLGMAGVFIVLGILYIVAELLIKIFPVNN [PF-C194] | P. gingivalis (T)

Tested on: microorganisms
Assay: Peptides having multiple activities (targeting/binding, antimicrobial, growth or phenotype altering)
Conditions: not given
Description: In certain embodiments, peptides described herein can have multiple activities. Thus for example, a peptide can have both binding/targeting activity and antimicrobial activity. Such peptides can be used, e.g., in a chimeric construct, for any or all of these properties. Thus, for example, a peptide designated “B” in Table 8 can be used as a targeting peptide. If it is also designated G or M it can also be used for antimicrobial activity.

Substance | Activities
SLQSQLGPCLHDQRH [PF-448] | G B M
PF-C084: peptide having multiple activities (FFSVIFLFGLNYLICNSPLFNILR; Peptide with targeting and/or antimicrobial activity) | G B
PF-C180: peptide having multiple activities (TVEELDKAFTWGAAAALAIGVIAINVGLAAGYCYNNNDVF; Peptide with targeting and/or antimicrobial activity) | G B
PF-C052: peptide having multiple activities (SRFRNGV; Peptide with targeting and/or antimicrobial activity) | G B
PF-C088: peptide having multiple activities (DIANNILNSVSERLIIA; Peptide with targeting and/or antimicrobial activity) | G B
NYAVVSHT [PF-209] | G B M
PF-C136: peptide having multiple activities (LILSYQASVYPLFAYLCQQKDY; Peptide with targeting and/or antimicrobial activity) | G B
LSEMERRRLRKRA-NH2 [PF-529] | G B M
RESKLIAMADMIRRRI-NH2 [PF-545] | G B M
NTNDLLQAFELMGLGMAGVFIVLGILYIVAELLIKIFPVNN [PF-C194] | G B
KFQGEFTNIGQSYIVSASHMSTSLNTGK [PF-583] | G B M
KFSDQIDKGQDALKDKLGDL [PF-525] | G M

Tested on: MRSA
Assay: Kill or inhibit growth/proliferation; morphology, biofilm and growth disruption (Tables 5, 6); also: test concentration or dose not given here
Assay type: cell-based, Methicillin-resistant Staphylococcus aureus
Parameters: key: A: Peptide aggregates; B: Less hyphal formation; Clumps; Diffuse clumps and small polyps; F: Diffuse growth; H: Thin; I: Growth inhibition; Microcolony formation; Rippled; Small polyps; Thick; W: Halo formation on top, microlonies on bottom
Conditions: not given

Substance | Organism, effect
NYAVVSHT [PF-209] | MRSA (I)
KFQGEFTNIGQSYIVSASHMSTSLNTGK [PF-583] | MRSA (I)

Tested on: S. epidermidis
Assay: as above
Assay type: cell-based, Staphylococcus epidermidis
Parameters: key: A: Peptide aggregates; B: Less hyphal formation; Clumps; Diffuse clumps and small polyps; F: Diffuse growth; H: Thin; I: Growth inhibition; Microcolony formation; Rippled; Small polyps; Thick; W: Halo formation on top, microlonies on bottom
Conditions: not given

Substance | Organism, effect
NYAVVSHT [PF-209] | S. epidermidis (C)
KFQGEFTNIGQSYIVSASHMSTSLNTGK [PF-583] | S. epidermidis (I)

Tested on: S. epidermidis
Assay: not given
Assay type: cell-based, Staphylococcus epidermidis
Conditions: S. epidermidis
Procedure: as §1, §2

Substance | MIC
KFQGEFTNIGQSYIVSASHMSTSLNTGK [PF-583] | S. epidermidis, 50 μM

Tested on: C. jeikeium
Assay: Kill or inhibit growth/proliferation; morphology, biofilm and growth disruption (Tables 5, 6); also: test concentration or dose not given here
Assay type: cell-based, Corynebacterium jeikeium
Parameters: key: A: Peptide aggregates; B: Less hyphal formation; Clumps; Diffuse clumps and small polyps; F: Diffuse growth; H: Thin; I: Growth inhibition; Microcolony formation; Rippled; Small polyps; Thick; W: Halo formation on top, microlonies on bottom
Conditions: not given

Substance | Organism, effect
RESKLIAMADMIRRRI-NH2 [PF-545] | C. jeikeium (H)

Tested on: E. faecalis
Assay: as above
Assay type: cell-based, Enterococcus faecalis
Parameters: key: A: Peptide aggregates; B: Less hyphal formation; Clumps; Diffuse clumps and small polyps; F: Diffuse growth; H: Thin; I: Growth inhibition; Microcolony formation; Rippled; Small polyps; Thick; W: Halo formation on top, microlonies on bottom
Conditions: not given

Substance | Organism, effect
RESKLIAMADMIRRRI-NH2 [PF-545] | E. faecalis (H)

Tested on: S. pneumoniae
Assay: MIC (broth microdilution)
Assay type: cell-based, Streptococcus pneumoniae
Conditions: not given
Procedure: as §1, §2

Substance | MIC
SLQSQLGPCLHDQRH [PF-448] | S. pneumoniae, 50 μM
LSEMERRRLRKRA-NH2 [PF-529] | S. pneumoniae, 50 μM
KFSDQIDKGQDALKDKLGDL [PF-525] | S. pneumoniae, 50 μM

Tested on: B. subtilis
Assay: Kill or inhibit growth/proliferation; morphology, biofilm and growth disruption (Tables 5, 6); also: test concentration or dose not given here
Assay type: cell-based, Bacillus subtilis
Parameters: key: A: Peptide aggregates; B: Less hyphal formation; Clumps; Diffuse clumps and small polyps; F: Diffuse growth; H: Thin; I: Growth inhibition; Microcolony formation; Rippled; Small polyps; Thick; W: Halo formation on top, microlonies on bottom
Conditions: not given

Substance | Organism, effect
RESKLIAMADMIRRRI-NH2 [PF-545] | B. subtilis (I)

Tested on: S. pneumoniae
Assay: as above
Assay type: cell-based, Streptococcus pneumoniae
Parameters: key: A: Peptide aggregates; B: Less hyphal formation; Clumps; Diffuse clumps and small polyps; F: Diffuse growth; H: Thin; I: Growth inhibition; Microcolony formation; Rippled; Small polyps; Thick; W: Halo formation on top, microlonies on bottom
Conditions: not given

Substance | Organism, effect
SLQSQLGPCLHDQRH [PF-448] | S. pneumoniae (I)
LSEMERRRLRKRA-NH2 [PF-529] | S. pneumoniae (H)
KFQGEFTNIGQSYIVSASHMSTSLNTGK [PF-583] | S. pneumoniae (D)
KFSDQIDKGQDALKDKLGDL [PF-525] | S. pneumoniae (H)

Tested on: F. nucleatum
Assay: as above
Assay type: cell-based, Fusobacterium nucleatum
Parameters: key: A: Peptide aggregates; B: Less hyphal formation; Clumps; Diffuse clumps and small polyps; F: Diffuse growth; H: Thin; I: Growth inhibition; Microcolony formation; Rippled; Small polyps; Thick; W: Halo formation on top, microlonies on bottom
Conditions: not given

Substance | Organism, effect (morphology, biofilm and growth disruption)
PF-C084: peptide having multiple activities (FFSVIFLFGLNYLICNSPLFNILR; Peptide with targeting and/or antimicrobial activity) | F. nucleatum (T)
PF-C088: peptide having multiple activities (DIANNILNSVSERLIIA; Peptide with targeting and/or antimicrobial activity) | F. nucleatum (H)
PF-C136: peptide having multiple activities (LILSYQASVYPLFAYLCQQKDY; Peptide with targeting and/or antimicrobial activity) | F. nucleatum (C)
PF-C293 (IIIILPKIYLVCKTV; Peptide with targeting and/or antimicrobial activity) | F. nucleatum (T)
NTNDLLQAFELMGLGMAGVFIVLGILYIVAELLIKIFPVNN [PF-C194] | F. nucleatum (T)

Tested on: A. niger
Assay: MIC (broth microdilution)
Assay type: cell-based, Aspergillus niger
Conditions: not given
Procedure: as §1, §2

Substance | MIC
SLQSQLGPCLHDQRH [PF-448] | A. niger, 25 μM
LSEMERRRLRKRA-NH2 [PF-529] | A. niger, 50 μM
RESKLIAMADMIRRRI-NH2 [PF-545] | A. niger, 50 μM
KFSDQIDKGQDALKDKLGDL [PF-525] | A. niger, 50 μM

Tested on: S. mutans
Assay: Kill or inhibit growth/proliferation; morphology, biofilm and growth disruption (Tables 5, 6); also: test concentration or dose not given here
Assay type: cell-based, Streptococcus mutans
Parameters: key: A: Peptide aggregates; B: Less hyphal formation; Clumps; Diffuse clumps and small polyps; F: Diffuse growth; H: Thin; I: Growth inhibition; Microcolony formation; Rippled; Small polyps; Thick; W: Halo formation on top, microlonies on bottom
Conditions: not given

Substance | Organism, effect (morphology, biofilm and growth disruption) | Organism, effect
PF-C084: peptide having multiple activities (FFSVIFLFGLNYLICNSPLFNILR; Peptide with targeting and/or antimicrobial activity) | S. mutans (F) | 
PF-C180: peptide having multiple activities (TVEELDKAFTWGAAAALAIGVIAINVGLAAGYCYNNNDVF; Peptide with targeting and/or antimicrobial activity) | S. mutans (S) | 
PF-C088: peptide having multiple activities (DIANNILNSVSERLIIA; Peptide with targeting and/or antimicrobial activity) | S. mutans (I) | 
PF-C293 (IIIILPKIYLVCKTV; Peptide with targeting and/or antimicrobial activity) | S. mutans (F) | 
NTNDLLQAFELMGLGMAGVFIVLGILYIVAELLIKIFPVNN [PF-C194] | S. mutans (F) | 
KFQGEFTNIGQSYIVSASHMSTSLNTGK [PF-583] |  | S. mutans (F)
